According to ChEMBL document CHEMBL3885861, “Open TG-GATES”:

Species: Rattus norvegicus
Assay: Open TG-GATES - Regimen: Single
Format: toxicity, organism-based, Sprague-Dawley
Set-up: regimen Single, gender Male, age 6 weeks
Conditions: in vivo, po, 150 mg/kg, route gavage, dose level High; for APTT / Bas / Eos / Fbg / Hb / Ht / Lym / MCH / MCHC / MCV / Mono / Neu / PT / Plat / RBC / Ret / WBC: tissue Blood; for KIDNEY_L / KIDNEY_R / KIDNEY_TOTAL: tissue Kidney; for LIVER: tissue Liver; for A/G / ALP / ALT / AST / BUN / CRE / Ca / Cl / DBIL / GLC / IP / K / LDH / Na / PL / RALB / TBIL / TC / TG / TP / gamma-GTP: tissue Plasma

## CN(C)CCC=C1c2ccccc2CCc2ccccc21 [AMITRIPTYLINE]
3 h
  TERMINAL_BW: 193.9 g
  APTT: 15.9 s
  Bas: 0.2%
  Eos: 0.4%
  Fbg: 285.6 mg/dL
  Hb: 13.4 g/dL
  Ht: 41.6%
  Lym: 75%
  MCH: 20.9 pg
  MCHC: 32.1%
  MCV: 65 fL
  Mono: 3.2%
  Neu: 20.4%
  PT: 16 s
  Plat: 120.6 x10_4/uL
  RBC: 641.4 x10_4/ul
  Ret: 9.3%
  WBC: 71.3 x10_2/uL
  KIDNEY_L: 0.9 g
  KIDNEY_R: 0.9 g
  KIDNEY_TOTAL: 1.7 g
  LIVER: 8.5 g
  A/G: 0.8
  ALP: 1527.2 IU/L
  ALT: 53.2 IU/L
  AST: 74.6 IU/L
  BUN: 7.8 mg/dL
  CRE: 0.2 mg/dL
  Ca: 10.9 mg/dL
  Cl: 107.4 meq/L
  DBIL: 0.006 mg/dL
  GLC: 188 mg/dL
  IP: 9.9 mg/dL
  K: 4.3 meq/L
  LDH: 67.4 IU/L
  Na: 145.6 meq/L
  PL: 138.8 mg/dL
  RALB: 2.5 g/dL
  TBIL: 0.058 mg/dL
  TC: 77 mg/dL
  TG: 40.6 mg/dL
  TP: 5.5 g/dL
  gamma-GTP: 0.8 IU/L
6 h
  TERMINAL_BW: 191.7 g
  APTT: 16.4 s
  Bas: 0%
  Eos: 0.6%
  Fbg: 273.8 mg/dL
  Hb: 12.7 g/dL
  Ht: 39.3%
  Lym: 74%
  MCH: 20.9 pg
  MCHC: 32.3%
  MCV: 64.6 fL
  Mono: 3.2%
  Neu: 21.2%
  PT: 15.7 s
  Plat: 123.7 x10_4/uL
  RBC: 610.2 x10_4/ul
  Ret: 9.3%
  WBC: 89.4 x10_2/uL
  KIDNEY_L: 0.8 g
  KIDNEY_R: 0.8 g
  KIDNEY_TOTAL: 1.6 g
  LIVER: 7.8 g
  A/G: 0.9
  ALP: 1508.6 IU/L
  ALT: 50.4 IU/L
  AST: 71 IU/L
  BUN: 7.4 mg/dL
  CRE: 0.1 mg/dL
  Ca: 10.7 mg/dL
  Cl: 108.2 meq/L
  DBIL: 0.004 mg/dL
  GLC: 179.6 mg/dL
  IP: 9.9 mg/dL
  K: 4.4 meq/L
  LDH: 57.4 IU/L
  Na: 143.4 meq/L
  PL: 149.6 mg/dL
  RALB: 2.5 g/dL
  TBIL: 0.058 mg/dL
  TC: 85.6 mg/dL
  TG: 28.8 mg/dL
  TP: 5.4 g/dL
  gamma-GTP: 0.6 IU/L
9 h
  TERMINAL_BW: 193.2 g
  APTT: 15.6 s
  Bas: 0%
  Eos: 0.8%
  Fbg: 305.8 mg/dL
  Hb: 13.1 g/dL
  Ht: 40.5%
  Lym: 65.4%
  MCH: 21 pg
  MCHC: 32.4%
  MCV: 64.8 fL
  Mono: 2.6%
  Neu: 30.2%
  PT: 15.6 s
  Plat: 125.8 x10_4/uL
  RBC: 625.2 x10_4/ul
  Ret: 9.1%
  WBC: 70.1 x10_2/uL
  KIDNEY_L: 0.8 g
  KIDNEY_R: 0.8 g
  KIDNEY_TOTAL: 1.7 g
  LIVER: 7.7 g
  A/G: 0.8
  ALP: 1542.6 IU/L
  ALT: 44.8 IU/L
  AST: 68.6 IU/L
  BUN: 7 mg/dL
  CRE: 0.1 mg/dL
  Ca: 10.8 mg/dL
  Cl: 107 meq/L
  DBIL: 0.01 mg/dL
  GLC: 193.4 mg/dL
  IP: 10.7 mg/dL
  K: 4.1 meq/L
  LDH: 82.4 IU/L
  Na: 143.4 meq/L
  PL: 142 mg/dL
  RALB: 2.5 g/dL
  TBIL: 0.06 mg/dL
  TC: 80.8 mg/dL
  TG: 42.2 mg/dL
  TP: 5.5 g/dL
  gamma-GTP: 1 IU/L
24 h
  TERMINAL_BW: 191.9 g
  APTT: 16.6 s
  Bas: 0.2%
  Eos: 1.2%
  Fbg: 277.4 mg/dL
  Hb: 13.6 g/dL
  Ht: 41.4%
  Lym: 80.4%
  MCH: 20.9 pg
  MCHC: 32.8%
  MCV: 63.7 fL
  Mono: 3%
  Neu: 14.6%
  PT: 17 s
  Plat: 123.6 x10_4/uL
  RBC: 649.6 x10_4/ul
  Ret: 8.1%
  WBC: 79.1 x10_2/uL
  KIDNEY_L: 0.9 g
  KIDNEY_R: 0.9 g
  KIDNEY_TOTAL: 1.8 g
  LIVER: 7.6 g
  A/G: 0.8
  ALP: 1505.6 IU/L
  ALT: 40.4 IU/L
  AST: 63 IU/L
  BUN: 13.8 mg/dL
  CRE: 0.2 mg/dL
  Ca: 10.9 mg/dL
  Cl: 105 meq/L
  DBIL: 0.016 mg/dL
  GLC: 182.6 mg/dL
  IP: 8.7 mg/dL
  K: 4.4 meq/L
  LDH: 58 IU/L
  Na: 142.2 meq/L
  PL: 133 mg/dL
  RALB: 2.5 g/dL
  TBIL: 0.062 mg/dL
  TC: 78.8 mg/dL
  TG: 47.8 mg/dL
  TP: 5.6 g/dL
  gamma-GTP: 1 IU/L
